Laboratory results taken from patent US20090286738A1, “Gene Regulation” (ST. GEORGE'S ENTERPRISES LIMITED, priority 2005, published 2009).
“Also recorded” adds a separate entry of the source. Values belong to the compound of their own block, whether it stands above or below them.

Assays:
[1] = Stability of peptides in human plasma at 37° C., SDS-PAGE; type: in vitro ADME; details: 1 mM peptide
Method: Peptides were incubated in human serum for the times shown and then visualised on a Coomassie brilliant blue stained gel. The arrow heads indicate the position of intact peptide. Standard=peptide only in this lane as a marker.
The stability of HXArg9(2D) and CX2Arg9(2D) was assessed by incubation each with human plasma at 37° C. and the amount of peptide remaining after different amounts of time was assessed by SDS-PAGE. Each peptide was added to freshly prepared human plasma to a final concentration of 1 mM in a total volume of 40 μl. Samples were incubated at 37° C. and reactions were stopped by adding 60 μl of water and 0.9 ml of protein gel loading buffer (BioRad, USA) containing 1% 2-mercaptoethanol, and heating to 95° C. for four minutes. 2 μl of each sample was run on a 22% acrylamide gel. […] This compared with a half life of approximately 40 minutes for the L isomer form HXArg9.

[2] = tested on: J82 (Human bladder cancer); type: cell-based
Source text: (§1) FIG. 5(a): MTT assays to determine the IC50 of the control and hexapeptide-containing peptides.
(§2) These include prostate (Miller, G. J. et al. Cancer Res. 63, 5879-5888 (2003)), renal (Cillo, C. et al. Int. J. Cancer. 51, 892-897 (1992)), bladder (Cantile, M., et al. Oncogene 22, 6462-6468 (2003)), lung (Abe, M. et al. Oncol. Rep. 15, 797-802 (2006)) and ovarian (Cheng, W., et al. Nat. Med. 11, 531-537 (2005)) cancer. In order to determine whether HXArg9 could also block the growth of cells derived from these cancers, we obtained the IC50 using an MTT assay for representative cell lines of each (Table 1).

[3] = tested on: B16F10 (Mouse melanoma); type: cell-based
Source text: as §1, §2

[4] = tested on: A549 (Human non-small cell lung carcinoma); type: cell-based
Source text: as §1, §2

[5] = tested on: SK-OV3 (Human ovarian cancer); type: cell-based
Source text: as §1, §2

[6] = tested on: A498 (Human renal cancer); type: cell-based
Source text: as §1, §2

[7] = tested on: LNCaP (Human prostate cancer); type: cell-based
Source text: as §1, §2

[8] = tested on: malignant cell lines (B16 mouse melanoma, LNCAP human prostate cancer, K562); assay: Activity of peptides on different malignant cell lines, living and dead cells after 3 hours (FIGS. 6 to 8); type: cell-based; details: for effect on living/dead cells, cell proliferation: 60 μM or 6 μM, 3 hour exposures, melanoma, prostate cancer and leukaemia cells
Method: (§3) The peptides as indicated were applied to the cells at a concentration of 60 μM (FIG. 6A) or 6 μM (FIG. 6B). In both experiments the HXArg9, CX1Arg9 and CX2Arg9 peptides used were the (2D) variant peptides in which the N- and C-terminal amino acids are in the D conformation and all remaining amino acids are in the L conformation. The number of living and dead cells were assessed after 3 hours. Black bars=% or number of cells dead. White bars=% or number of cells alive.
as §3, with “7A)” for “6A)”, “7B).” for “6B).”
as §3, with “μM. HXArg9(2D) is” for “μM (FIG. 6A) or 6 μM (FIG. 6B). In both experiments”, “variant form of HXArg9 in which the N-terminal and C-terminal amino acids are in the D conformation and the remaining amino acids are in the L conformation. HXArg9 consists of only L-conformation amino acids. The” for “HXArg9,”, “bars=%” for “bars=% or number of”
(§4) Cell lines were seeded at 4×10^4 cells/ml in liquid culture system made of RPMI-1640 medium (Life Technologies, UK) supplemented with Foetal Calf Serum (10% Sigma Aldrich) and penicillin/streptomycin (1%, Sigma) and at least in duplicate. When required the test peptide was added to the medium. Cell lines were cultured for up to 7 days at 37° C., 5% CO2 in humidified atmosphere. Cultured cells were then assessed for cell viability/enumeration using trypan blue exclusion (Sigma Aldrich).
The activity of the peptides described above was tested on a number of different malignant cell lines using a similar assay to that described previously.

[9] = tested on: malignant cell lines (B16 mouse melanoma, LNCAP human prostate cancer, K562); details: time scale in which HXP4 shows an effect; cited from earlier work
[10] = tested on: B16 murine melanoma cells; assay: Living and dead B16 cells after 3 hours (FIGS. 2A, 9); type: cell-based; details: B16 cells, FIGS. 2 and 3
Method: In FIG. 2A the peptides as indicated were applied to the cells at a concentration of 60 μM. The number of living and dead cells were assessed after 3 hours. Black bars=number of cells dead. White bars=number of cells alive.
as §3
The HXArg9 peptide used was the (2D) variant peptide in which the N- and C-terminal amino acids are in the D conformation and all remaining amino acids are in the L conformation. HXArg9 was applied to the cells at a variety of concentrations (μM), and the number of dead and living cells was assessed after 3 hours. Black bars=% cells dead. White bars=% cells alive.
as §4

[11] = tested on: B16 murine melanoma cells; assay: B16 cell growth over a 4 day period (FIGS. 2B, 3); type: cell-based; details: 200 μg/ml for 4 hours, counted day 4
Method: In FIG. 2B the peptides as indicated were applied to the cells at a concentration of 200 μg/ml for 4 hours. The number of cells present was assessed on the day of treatment (white bars) and on day 4 (diagonal stripes).
A=untreated; B=CXP4; C=HXP4; D=HXP4(3D)2; E=HXP4(3D)3; F=HXP4(3D)4.
as §4

[12] = tested on: B16 cells; assay: Apoptosis of B16 cells (microscopy, Hoechst, Annexin V FACS); type: cell-based, murine; details: in combination with HXArg9(2D)
Method: FIG. 5(b): Light micrographs of B16 cells treated with 60 μM HXArg9(2D) (HXR9) or CX2Arg9(2D) (CXR9) for two hours. Scale bar=40 μm.
FIG. 5(c) Transmission electron micrographs of B16 cells treated with 60 μM HXR9 or CXR9 for two hours. Scale bar=[…].
FIG. 5(d) FACS sorting of B16 cells with Annexin. Cells were treated as indicated above each plot. The lower left hand quadrant represents normal, viable cells. The bottom and top right hand quadrants represent cells in early and late apoptosis, respectively, and the top left hand quadrant represents cells in necrosis.
Apoptotic morphology was determined using scanning electron microscopy and fluorescence microscopy. Changes in nuclear morphology were assessed by fixing B-16 cytospins with ice-cold methanol at room temperature for five minutes. The fixed cells were stained with Hoechst 33258 (2 μg/ml) (Sigma) and mounted using VECTASHIELD® mounting medium (Vector) and analyzed by fluorescence microscopy (Nikon Eclipse TE 2000-S).
An additional sign of apoptosis is the appearance of phosphatidylserine in the cell membrane (Koopman, G. et al. Blood 84, 1415-1420 (1994)). This can be detected by fluorescencently labeled Annexin V protein and cell sorting using FACS.
This is a specific inhibitor of the caspase proteases, which are key components of the apotopic pathway (Zhu, H., et al. FEBS Lett. 374, 303-308 (1995)).

half-life at 1 mM [1]: ~12 h | IC50 [2]: 290 µM | IC50 [3]: 200 µM | IC50 [4]: 240 µM | IC50 [5]: 270 µM | IC50 [6]: 280 µM | IC50 [7]: 220 µM
Compound: CSCC[C@@H](N)C(=O)N[C@@H](CS)C(=O)N[C@@H](C)C(=O)N[C@@H](C)C(=O)NCC(=O)N[C@@H](CC(=O)O)C(=O)N[C@@H](CC(=O)O)C(=O)N[C@@H](C)C(=O)N[C@@H](CC(C)C)C(=O)N[C@@H](CCCNC(=N)N)C(=O)N[C@@H](CCCNC(=N)N)C(=O)N[C@@H](CCCNC(=N)N)C(=O)N[C@@H](CCCNC(=N)N)C(=O)N[C@@H](CCCNC(=N)N)C(=O)N[C@@H](CCCNC(=N)N)C(=O)N[C@@H](CCCNC(=N)N)C(=O)N[C@@H](CCCNC(=N)N)C(=O)N[C@H](CCCNC(=N)N)C(=O)O [CX2Arg9(2D), MCAAGDDALRRRRRRRRR, reference compound]

half-life at 1 mM [1]: ~12 h | IC50 [2]: 22 µM | IC50 [3]: 20 µM | IC50 [4]: 19 µM | IC50 [5]: 22 µM | IC50 [6]: 24 µM | IC50 [7]: 21 µM
Compound: CSCC[C@H](NC(=O)[C@H](Cc1c[nH]c2ccccc12)NC(=O)[C@@H]1CCCN1C(=O)[C@H](Cc1ccc(O)cc1)NC(=O)[C@H](N)Cc1c[nH]c2ccccc12)C(=O)N[C@@H](CCCCN)C(=O)N[C@@H](CCCCN)C(=O)N[C@@H](Cc1c[nH]cn1)C(=O)N[C@@H](Cc1c[nH]cn1)C(=O)N[C@@H](CCCNC(=N)N)C(=O)N[C@@H](CCCNC(=N)N)C(=O)N[C@@H](CCCNC(=N)N)C(=O)N[C@@H](CCCNC(=N)N)C(=O)N[C@@H](CCCNC(=N)N)C(=O)N[C@@H](CCCNC(=N)N)C(=O)N[C@@H](CCCNC(=N)N)C(=O)N[C@@H](CCCNC(=N)N)C(=O)N[C@H](CCCNC(=N)N)C(=O)O [HXArg9(2D), WYPWMKKHHRRRRRRRRR]

Compound: MCAAGDDALRRRRRRRRR [CX2Arg9, more extensively changed version of the control peptide CX1Arg9, reference compound]
effect on living/dead cells, cell proliferation [8]: no effect on cell proliferation

Compound: WCPWLDRHGRQIKIWFQNRRMKWKK [CXP4]
effect in a similar assay, previously shown [9]: ineffective

Compound: WCPWLDRHGRRRRRRRRR [CX1Arg9, control peptide based on HXArg9 with amino acid substitutions]
effect on living/dead cells, cell proliferation [8]: some activity

Compound: WYPWMKKHHRQIKIWFQNRRMKWKK [HXP4(3D)1]
activity of D-isomer variants of HXP4 [10]: slightly higher activity than the other 3D isomers

Compound: WYPWMKKHHRQIKIWFQNRRMKWKK [HXP4]
cell growth over a 4 day period [11]: significantly reduced cell growth | effect on living/dead cells, cell proliferation [8]: no effect | time required to achieve the same response ([8]; compared with 3 hour exposures for HXArg9): 4 days

Compound: Z-VAD
cell death / apoptosis on co-treatment with HXArg9(2D) [12]: significant reduction in cell death; also recorded: significant reduction in the number of cells undergoing apoptosis
